According to US7718808B2, “Thiazole derivatives” (Kyowa Hakko Kirin Co., Ltd., priority 2003, dated 2010):

Columns and labels:
[1] = target: T1, Rat Adenosine A2A Receptor (Rattus norvegicus, UniProt P30543); experiment: Adenosine A2A receptor binding test (3H-CGS21680 binding, rat corpus striatum); settings: test compound 10^−7 mol/L, 25° C., 120 minutes, read-out: Rat Adenosine A2A Receptor Binding Inhibition rate (%) (10^−7 mol/L)
T1 construct: tissue Nippon SLC (animals); host or cells: rat (SD) corpus striatum membrane homogenate
T1 sequence (P30543 whole entry): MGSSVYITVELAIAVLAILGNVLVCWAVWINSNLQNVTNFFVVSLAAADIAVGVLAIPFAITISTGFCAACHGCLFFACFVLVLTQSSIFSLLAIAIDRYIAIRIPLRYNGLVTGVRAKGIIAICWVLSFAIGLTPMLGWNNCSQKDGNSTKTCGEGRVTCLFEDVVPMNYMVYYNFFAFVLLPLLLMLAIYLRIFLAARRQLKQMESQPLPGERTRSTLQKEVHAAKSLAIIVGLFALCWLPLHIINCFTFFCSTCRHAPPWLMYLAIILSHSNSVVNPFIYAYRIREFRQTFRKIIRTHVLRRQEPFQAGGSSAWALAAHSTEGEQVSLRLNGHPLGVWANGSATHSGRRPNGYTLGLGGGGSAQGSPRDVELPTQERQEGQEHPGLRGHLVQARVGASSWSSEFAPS
Procedure: This test was carried but in a similar manner to a Bruns et al's method (Molecular Pharmacology, Vol. 29, p. 331, 1986).
Corpus striatum of rats (SD rat, by Nippon SLC) was suspended in 50 mL of an ice-cooled 50 mmol/L tris(hydroxymethyl)aminomethane hydrochloride (Tris-HCl) buffer (pH 7.7) using a polytron homogenizer (by Kinematica). The resulting homogenate was centrifuged (48,000×g, 20 minutes), and the resulting precipitate was again suspended by adding the same amount of a 50 mmol/L Tris-HCl buffer, followed by centrifugation under the same condition. The resulting final precipitate was suspended by adding a 50 mmol/L Tris-HCl buffer [containing 10 mmol/L magnesium chloride, adenosine deaminase 0.02 units/mg tissue (by Sigma)] so that the tissue concentration was 5 mg (wet weight)/mL.
To 100 μL of the above purified tissue suspension, were added 80 μL (final concentration […]) of tritium-labeled CGS-21680 {^3H-2-[p-(2-carboxyethyl)phenethylamino]-5′-(N-ethylcarboxamido)-adenosine: 40 curies/mmol; by New England Nuclear [The Journal of Pharmacology and Experimental Therapeutics, Vol. 251, p. 888, 1989]} and 20 μL of a test compound solution (10^−7 mol/L; a solution of a test compound in DMSO was diluted with Tris-HCl buffer). The resulting mixture was allowed to stand at 25° C. for 120 minutes, followed by rapid suction filtration through a glass fiber paper filter (GF/C; by Whatman). The filter was immediately washed three times with 200 μL of an ice-cooled 50 mmol/L Tris-HCl buffer. The glass fiber paper filter was transferred into a vial, Microscinti (by Perkin Elmer) was added thereto, and the radioactivity level was measured with Topcount (by Perkin Elmer).
The inhibition rate of the test compound to the adenosine A2A receptor binding (^3H-CGS21680 binding) was calculated according to the following formula.
Amount of total binding means the ^3H-CGS21680 binding radioactivity content in the absence of the test compound. Amount of non-specific binding means the ^3H-CGS21680 binding radioactivity content in the presence of 100 μmol/L cyclopentyladenosine (CPA; by Sigma). Amount of binding in the presence of test compound means the ^3H-CGS21680 binding radioactivity content in the presence of 10^−7 mol/L of the test compound.

[2] = test system: MPTP-treated common marmoset; experiment: Effect in Parkinson's disease model (MPTP-treated common marmoset), motor disability score; type: in vivo; settings: oral administration, 10 mg/kg; MPTP-treated common marmosets; scored at 30 minute intervals for 8 hours
Source text: Parkinson's disease is a disorder based on the degeneration and lack of dopaminergic neurons in the nigro-striatal pathway. In the primates, treatment with a dopamine neurotoxin, that is MPTP, causes selective degeneration and lack of the dopaminergic neurons in the nigro-striatal pathway and causes a symptom such as akinesia and muscular rigidity. The MPTP-treated primate is known as a Parkinson's disease model (Proceedings of the National Academy of Science USA, Vol. 80, p. 4546, 1983). Also, common marmoset belongs to Anthropoidea, and is known to have parkinsonism caused by MPTP like others of Anthropoidea (Neuroscience Letter, Vol. 57, p. 37, 1985).
The experiment was carried out using four male and female common marmosets of 2 or 3 years old (body weight, 300 to 375 g, by Nippon Clea) per group. […] The motor disability of the animals before the administration of the test compound was scored, and this was compared with the motor disability score after orally administration of the test compound (Compound 1) in a dose of 10 mg/kg. As, the parkinsonian symptoms, the motor disabilities were scored at intervals of 30 minutes for 8 hours, by observation through a one-way viewing window. The spontaneous locomotor activity was measured at intervals of 30 minutes for 12 hours by a computer-controlled automatic measuring apparatus. […]

Structure (SMILES)	inhibition at 0.1 µM [1] [%]	melting point [°C]	remission of the parkinsonian symptoms (motor disability score before vs after administration) [2]
O=C(Nc1nc(-c2ccco2)c(-c2ccncc2)s1)c1ccncc1 [Compound 1, N-[4-(2-Furyl)-5-(4-pyridyl)thiazol-2-yl]pyridine-4-carboxamide]	90		effective for remission of the parkinsonian symptoms
CC(C)n1nc(-c2sc(NC(=O)c3ccncc3)nc2-c2ccco2)ccc1=O [Compound 131, N-[4-(2-Furyl)-5-(1-isopropyl-6-oxo-1,6-dihydropyridazin-3-yl)thiazol-2-yl]pyridine-4-carboxamide]	99	190 to 194	
N#Cc1ccc(C(=O)Nc2nc(-c3ccco3)c(C(=O)c3ccccn3)s2)cc1 [Compound 206, 4-Cyano-N-[4-(2-furyl)-5-(pyridin-2-ylcarbonyl)thiazol-2-yl]benzamide]	95	232 to 235	
O=C(Nc1nc(-c2ccco2)c(C(=O)C2CCOCC2)s1)c1ccncc1 [Compound 455, N-[4-(2-Furyl)-5-(tetrahydropyran-4-ylcarbonyl)thiazol-2-yl]pyridine-4-carboxamide]	100	202 to 209	
COc1cccc(C(=O)Nc2nc(-c3ccco3)c(C(=O)C3CCOCC3)s2)c1 [Compound 462, N-[4-(2-Furyl)-5-(tetrahydropyran-4-ylcarbonyl)thiazol-2-yl]-3-methoxybenzamide]	99	198 to 200	
Cc1ccc(C(=O)Nc2nc(-c3ccco3)c(C(=O)C3CCOCC3)s2)cn1 [Compound 504, N-[4-(2-Furyl)-5-(tetrahydropyran-4-ylcarbonyl)thiazol-2-yl]-2-methylpyridine-5-carboxamide]	100		
O=C(Nc1nc(-c2ccco2)c(C(=O)C2CCOCC2)s1)c1ccco1 [Compound 511, N-[4-(2-Furyl)-5-(tetrahydropyran-4-ylcarbonyl)thiazol-2-yl]furan-2-carboxamide]	88	196 to 198	
N#Cc1ccc(C(=O)Nc2nc(-c3ccco3)c(C(=O)C3CCOCC3)s2)o1 [Compound 515, 5-Cyano-N-[4-(2-furyl)-5-(tetrahydropyran-4-ylcarbonyl)thiazol-2-yl]furan-2-carboxamide]	95	222 to 223	

The next lines start with results.

inhibition at 0.1 µM [1] [%]	melting point [°C]	Structure (SMILES)	remission of the parkinsonian symptoms (motor disability score before vs after administration) [2]
91	> 300	O=C(Nc1nc(-c2ccco2)c(C(=O)c2ccccc2)s1)c1ccc(=O)[nH]c1 [Compound 149, N-[5-Benzoyl-4-(2-furyl)thiazol-2-yl]-2-oxo-1,2-dihydropyridine-5-carboxamide]	
86	218 to 227	O=C(Nc1nc(-c2ccco2)c(C(=O)c2ccccn2)s1)c1ccncc1 [Compound 187, N-[4-(2-Furyl)-5-(pyridin-2-ylcarbonyl)thiazol-2-yl]pyridine-4-carboxamide]	
98	191 to 192	O=C(c1ccccn1)c1sc(NC(=O)C2CC2)nc1-c1ccco1 [Compound 191, N-[4-(2-Furyl)-5-(pyridin-2-ylcarbonyl)thiazol-2-yl]cyclopropanecarboxamide]	
100	184 to 185	O=C(Nc1nc(-c2ccco2)c(C(=O)c2ccccn2)s1)c1ccco1 [Compound 234, N-[4-(2-Furyl)-5-(pyridin-2-ylcarbonyl)thiazol-2-yl]furan-2-carboxamide]	
100	228 to 240	O=C(Nc1nc(-c2ccco2)c(C(=O)c2nccs2)s1)c1ccncc1 [Compound 348, N-[4-(2-Furyl)-5-(thiazol-2-ylcarbonyl)thiazol-2-yl]pyridine-4-carboxamide]	
94	182 to 183	O=C(Nc1nc(-c2ccco2)c(C(=O)C2CCOCC2)s1)C1CC1 [Compound 456, N-[4-(2-Furyl)-5-(tetrahydropyran-4-ylcarbonyl)thiazol-2-yl]cyclopropanecarboxamide]	
93	131 to 132	O=C(Nc1nc(-c2ccco2)c(C(=O)C2CCOCC2)s1)c1ccc(F)cc1 [Compound 468, 4-Fluoro-N-[4-(2-furyl)-5-(tetrahydropyran-4-ylcarbonyl)thiazol-2-yl]benzamide]	
90	233 to 235	O=C(Nc1nc(-c2ccco2)c(C(=O)C2CCOCC2)s1)c1ccc(Cl)nc1 [Compound 502, 2-Chloro-N-[4-(2-furyl)-5-(tetrahydropyran-4-ylcarbonyl)thiazol-2-yl]pyridine-5-carboxamide]	
92		O=C(CN1CCOCC1)Nc1nc(-c2ccco2)c(C(=O)C2CCOCC2)s1 [Compound 558, N-[4-(2-Furyl)-5-(tetrahydropyran-4-ylcarbonyl)thiazol-2-yl]-2-morpholinoacetamide]	
